Laboratory results taken from patent US20240217978A1 (CHONG KUN DANG PHARMACEUTICAL CORP., priority 2021, published 2024).

Target: human adenosine A2a receptor (Homo sapiens (Human), UniProt P29274)
Test: A2a receptor binding affinity, [3H]-NECA radioligand binding test
Settings: [3H]-NECA 37 nM; membrane from HEK-293 cells transfected with human adenosine A2a receptor
Summary of the method: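 Membranes from HEK-293 cells expressing human A2a receptor were incubated with [3H]-NECA (final 37 nM) and compound for 1 h at room temperature in 50 mM Tris, 10 mM MgCl2, 1 mM EDTA, pH 7.4. Bound ligand was filtered on PEI-coated plates and counted by scintillation to derive IC50 (μM).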

human adenosine A2a receptor, sequence (P29274 whole entry): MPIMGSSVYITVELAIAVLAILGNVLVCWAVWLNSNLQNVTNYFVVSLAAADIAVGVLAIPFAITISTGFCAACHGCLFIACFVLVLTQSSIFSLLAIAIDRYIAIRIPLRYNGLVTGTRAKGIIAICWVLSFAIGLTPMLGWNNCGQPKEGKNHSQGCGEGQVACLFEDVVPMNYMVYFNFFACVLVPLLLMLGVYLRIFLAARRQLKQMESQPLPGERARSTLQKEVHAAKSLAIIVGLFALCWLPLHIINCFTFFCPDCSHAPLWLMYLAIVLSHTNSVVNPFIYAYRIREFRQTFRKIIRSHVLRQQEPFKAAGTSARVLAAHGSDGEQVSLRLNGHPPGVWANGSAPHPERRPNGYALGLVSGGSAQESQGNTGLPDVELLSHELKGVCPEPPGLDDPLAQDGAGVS

| Compound | IC50 |
| --- | --- |
| Nc1nc(N2CCC[C@H]2C(=O)N2CCN(Cc3ccc(F)cc3)CC2)nc2nc(-c3ccco3)nn12 [Example 45, (S)-(1-(7-amino-2-(furan-2-yl)-[1,2,4]triazolo[1,5-a][1,3,5]triazin-5-yl)pyrrolidin-2-yl)(4-(4-fluorobenzyl)piperazin-1-yl)methanone] | 19 nM |
| Nc1nc(N2CCC[C@H]2C(=O)N2CCN(C3CC4CCC3C4)CC2)nc2nc(-c3ccco3)nn12 (stereo partly drawn) [Example 156, ((S)-1-(7-amino-2-(furan-2-yl)-[1,2,4]triazolo[1,5-a][1,3,5]triazin-5-yl)pyrrolidin-2-yl)(4-(bicyclo[2.2.1]heptan-2-yl)piperazin-1-yl)methanone] | 12 nM |
| Nc1nc(N[C@@H](CO)C(=O)N2CCN(c3ncccn3)CC2)nc2nc(-c3ccco3)nn12 [Example 235, (S)-2-((7-amino-2-(furan-2-yl)-[1,2,4]triazolo[1,5-a][1,3,5]triazin-5-yl)amino)-3-hydroxy-1-(4-(pyrimidin-2-yl)piperazin-1-yl)propan-1-one] | 10 nM |
| COCCN1CCC(C2CCN(C(=O)[C@@H]3CCN3c3nc(N)n4nc(-c5ccco5)nc4n3)CC2)CC1 [Example 329, (S)-(1-(7-amino-2-(furan-2-yl)-[1,2,4]triazolo[1,5-a][1,3,5]triazin-5-yl)azetidin-2-yl)(1′-(2-methoxyethyl)-[4,4′-bipiperidin]-1-yl)methanone] | 26 nM |
| Nc1nc(N2CCC[C@H]2C(=O)N2CC3CCC(C2)N3C(=O)c2ccccc2)nc2nc(-c3ccco3)nn12 [Example 157, (3-((7-amino-2-(furan-2-yl)-[1,2,4]triazolo[1,5-a][1,3,5]triazin-5-yl)-L-prolyl)-3,8-diazabicyclo[3.2.1]octan-8-yl)(phenyl)methanone] | 6 nM |
| Nc1nc(N2CCC[C@H]2C(=O)N2CCN(C(=O)c3ccc(F)cc3F)CC2)nc2nc(-c3ccco3)nn12 [Example 64, (4-((7-amino-2-(furan-2-yl)-[1,2,4]triazolo[1,5-a][1,3,5]triazin-5-yl)-L-prolyl)piperazin-1-yl)(2,4-difluorophenyl)methanone] | 14 nM |
| Nc1nc(N2CCC[C@H]2C(=O)N2CCC(C3CCN(CC(F)F)CC3)CC2)cc2nc(-c3ccco3)nn12 [Example 393, (S)-(1-(5-amino-2-(furan-2-yl)-[1,2,4]triazolo[1,5-c]pyrimidin-7-yl)pyrrolidin-2-yl)(1′-(2,2-difluoroethyl)-[4,4′-bipiperidin]-1-yl)methanone] | 13 nM |
| CN(CC(F)(F)F)C1CCN(C(=O)[C@@H]2CCCN2c2nc(N)n3nc(-c4ccco4)nc3n2)CC1 [Example 337, (S)-(1-(7-amino-2-(furan-2-yl)-[1,2,4]triazolo[1,5-a][1,3,5]triazin-5-yl)pyrrolidin-2-yl)(4-(methyl(2,2,2-trifluoroethyl)amino)piperidin-1-yl)methanone] | 9 nM |

Now from value to compound:

| IC50 | Compound |
| --- | --- |
| 0.1 nM | Nc1nc(N[C@@H](Cc2ccccc2)C(=O)N2CCN(Cc3ccc(F)cc3F)CC2)nc2nc(-c3ccco3)nn12 [Example 13, (S)-2-((7-amino-2-(furan-2-yl)-[1,2,4]triazolo[1,5-a][1,3,5]triazin-5-yl)amino)-1-(4-(2,4-difluorobenzyl)piperazin-1-yl)-3-phenylpropan-1-one] |
| 8 nM | Nc1nc(N2CCCN2C(=O)N2CCN(CC(F)(F)F)CC2)nc2nc(-c3ccco3)nn12 [Example 353, (2-(7-amino-2-(furan-2-yl)-[1,2,4]triazolo[1,5-a][1,3,5]triazin-5-yl)pyrazolidin-1-yl)(4-(2,2,2-trifluoroethyl)piperazin-1-yl)methanone] |
| 4 nM | CC(C)(O)CN1CCC(C2CCN(C(=O)[C@@H]3CCCN3c3nc(N)n4nc(-c5ccco5)nc4n3)CC2)CC1 [Example 244, (S)-(1-(7-amino-2-(furan-2-yl)-[1,2,4]triazolo[1,5-a][1,3,5]triazin-5-yl)pyrrolidin-2-yl)(1′-(2-hydroxy-2-methylpropyl)-[4,4′-bipiperidin]-1-yl)methanone] |
| 8 nM | C[C@H](Nc1nc(N)n2nc(-c3ccco3)nc2n1)C(=O)N1CC2(CCN(CC(C)(F)F)CC2)C1 [Example 366, (S)-2-((7-amino-2-(furan-2-yl)-[1,2,4]triazolo[1,5-a][1,3,5]triazin-5-yl)amino)-1-(7-(2,2-difluoropropyl)-2,7-diazaspiro[3-5]nonan-2-yl)propan-1-one] |
| 3 nM | Cc1ccc(-c2nc3nc(N4CCC[C@H]4C(=O)N4CCC(C5CCN(CC(F)(F)F)CC5)CC4)nc(N)n3n2)o1 [Example 197, (S)-(1-(7-amino-2-(5-methylfuran-2-yl)-[1,2,4]triazolo[1,5-a][1,3,5]triazin-5-yl)pyrrolidin-2-yl)(1′-(2,2,2-trifluoroethyl)-[4,4′-bipiperidin]-1-yl)methanone] |
| 9 nM | Nc1nc(N2CC[C@H]2C(=O)N2CCN(c3ncccn3)CC2)nc2nc(-c3ccco3)nn12 [Example 242, (S)-(1-(7-amino-2-(furan-2-yl)-[1,2,4]triazolo[1,5-a][1,3,5]triazin-5-yl)azetidin-2-yl)(4-(pyrimidin-2-yl)piperazin-1-yl)methanone] |
| 3 nM | Nc1nc(N2CC[C@H]2C(=O)N2CCC(C3CCN(CC(F)F)CC3)CC2)nc2nc(-c3ccco3)nn12 [Example 323, (S)-(1-(7-amino-2-(furan-2-yl)-[1,2,4]triazolo[1,5-a][1,3,5]triazin-5-yl)azetidin-2-yl)(1′-(2,2-difluoroethyl)-[4,4′-bipiperidin]-1-yl)methanone] |
| 0.6 nM | CC(C)(C)[C@H](Nc1nc(N)n2nc(-c3ccco3)nc2n1)C(=O)N1CCN(c2ccc(F)cc2F)CC1 [Example 165, (S)-2-((7-amino-2-(furan-2-yl)-[1,2,4]triazolo[1,5-a][1,3,5]triazin-5-yl)amino)-1-(4-(2,4-difluorophenyl)piperazin-1-yl)-3,3-dimethylbutan-1-one] |
| 3 nM | CC(F)(F)CN1CCC(C2CCN(C(=O)[C@@H]3CCCN3c3nc(N)n4nc(-c5ccco5)nc4n3)CC2)CC1 [Example 288, (S)-(1-(7-amino-2-(furan-2-yl)-[1,2,4]triazolo[1,5-a][1,3,5]triazin-5-yl)pyrrolidin-2-yl)(1′-(2,2-difluoropropyl)-[4,4′-bipiperidin]-1-yl)methanone] |
| 6.02 nM | Nc1nc(NCC(=O)N2CCN(Cc3ccc(F)cc3F)CC2)nc2nc(-c3ccco3)nn12 [Example 15, 2-((7-amino-2-(furan-2-yl)-[1,2,4]triazolo[1,5-a][1,3,5]triazin-5-yl)amino)-1-(4-(2,4-difluorobenzyl)piperazin-1-yl)ethan-1-one] |
| 3 nM | Cc1ccc(-c2nc3nc(N4CCC[C@H]4C(=O)N4CCN(CC(F)(F)C(F)F)CC4)nc(N)n3n2)o1 [Example 298, (S)-(1-(7-amino-2-(5-methylfuran-2-yl)-[1,2,4]triazolo[1,5-a][1,3,5]triazin-5-yl)pyrrolidin-2-yl)(4-(2,2,3,3-tetrafluoropropyl)piperazin-1-yl) methanone] |
| 6 nM | Nc1nc(N2CCC[C@H]2C(=O)N2CCN(c3ccccc3F)CC2)nc2nc(-c3ccco3)nn12 [Example 120, (S)-(1-(7-amino-2-(furan-2-yl)-[1,2,4]triazolo[1,5-a][1,3,5]triazin-5-yl)pyrrolidin-2-yl)(4-(2-fluorophenyl)piperazin-1-yl)methanone] |
